For one series, the target named is CYP3A4 (CYP3A) (Homo sapiens, UniProt P08684). As to the kind of experiment: Time-dependent inhibition of CYP3A in human liver microsomes. It is filed as in vitro ADME. The following applies: probe testosterone. Here is the method:
To assess the potential of the compound of Formula (III) to be a time-dependent inhibitor of CYP3A, human liver microsomes were preincubated for 30 minutes at 37° C. with the compound of Formula (III) at concentrations up to 10 μM, and CYP3A activity was measured using testosterone as a probe substrate. […] The potential of the compound of Formula (III) to induce CYPs at the transcriptional level was assessed using Puracyp™ DPX2 (CYP3A4, PXR) and DRE (CYP1A2, AhR) luciferase-reporter cell lines; rifampicin and omeprazole were used as positive controls for CYP3A and CYP1A induction, respectively. The activation by the compound of Formula (III) was <20% of positive control values for PXR (6.6% and 14.1% at 1 and 10 μM change, respectively) or AhR (0.1% and 0.3% change, respectively). […] Potential involvement of various CYP isoforms in the metabolism of the compound of Formula (III) was investigated by measuring the parent compound remaining after 1-hour incubation with the compound of Formula (III) (1 μM) with recombinant CYPs (rCYPs) at 100 pmol P450/mL in the presence of 1 mM NADPH at 37° C. The only isozyme that produced notable the compound of Formula (III) turnover with <1% parent remaining after 1-hour incubation was CYP3A4 (FIG. 24). […]

For another series, the target named is T1, BMX (Homo sapiens, UniProt P51813).
T1 construct: purchased Eurofins Scientific
The series can be described thus: Eurofins KinaseProfiler/IC50Profiler radiometric kinase activity assay. The class given is biochemical. Here is the method: (§1) RESULTS AND DISCUSSION—Selectivity—The compound of Formula (III) was evaluated in three selectivity panels to assess the potential for off-target pharmacology (Table 8). […] The kinase off-target profile of The compound of Formula (III) was assessed in a full human wild-type panel using radiometric kinase activity assays (KinaseProfiler™ and IC50Profiler™; Eurofins Scientific) (Table 9; FIG. 23). The compound of Formula (III) inhibited 4/278 kinases >50% at 1 micromolar, identifying BTK and the three other kinases having analogous Cys residues with the potential for covalent inhibition (BMX, TEC, BLK). […]. The cellular kinase selectivity of The compound of Formula (III) was established in native Ramos B cell kinome assays (KiNativ™; ActivX) confirmed BTK as the primary target with inhibition of BLK and TEC inhibition detected (Table 10).

A further series addresses T2, TEC (Homo sapiens, UniProt P42680).
T2 construct: purchased Eurofins Scientific
T2 sequence (P42680 1-631): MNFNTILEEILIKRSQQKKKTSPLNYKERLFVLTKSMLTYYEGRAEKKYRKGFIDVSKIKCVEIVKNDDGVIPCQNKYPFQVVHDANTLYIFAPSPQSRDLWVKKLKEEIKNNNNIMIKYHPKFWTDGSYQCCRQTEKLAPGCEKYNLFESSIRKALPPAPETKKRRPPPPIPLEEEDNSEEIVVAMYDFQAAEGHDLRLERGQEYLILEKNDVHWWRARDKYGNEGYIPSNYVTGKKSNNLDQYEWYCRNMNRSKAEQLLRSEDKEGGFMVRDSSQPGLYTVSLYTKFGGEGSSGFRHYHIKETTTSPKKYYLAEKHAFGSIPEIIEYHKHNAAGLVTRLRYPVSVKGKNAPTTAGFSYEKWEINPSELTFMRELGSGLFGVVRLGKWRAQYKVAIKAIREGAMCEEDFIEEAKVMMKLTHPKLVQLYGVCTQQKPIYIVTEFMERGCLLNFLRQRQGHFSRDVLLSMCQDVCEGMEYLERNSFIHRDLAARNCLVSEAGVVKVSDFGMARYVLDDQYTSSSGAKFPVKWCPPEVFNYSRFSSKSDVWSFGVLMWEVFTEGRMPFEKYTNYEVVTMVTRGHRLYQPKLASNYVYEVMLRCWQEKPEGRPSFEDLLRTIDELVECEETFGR
Described as above. The class given is biochemical. The method, then:
as §1

In a further series the target is T3, BLK (Homo sapiens, UniProt P51451).
T3 construct: purchased Eurofins Scientific
The description is as above. It is filed as biochemical. The method, then:
as §1

The nature of series [1]: Blood-to-plasma concentration ratio. The class given is in vitro ADME. The following applies: dog, fresh blood.
The nature of series [2]: Plasma protein binding, equilibrium dialysis. It is filed as in vitro ADME, guinea pig. Here is the method: Additional Data on Preclinical PK Profile—Protein binding of the compound of Formula (III) was studied using an equilibrium dialysis method in plasma from human, cynomolgus monkey, beagle dog, Sprague Dawley rat, CD-1 mouse, and guinea pig at 0.25, 2.5, and 25 μM. […] In human and monkey, the plasma protein binding was concentration dependent. […] Free fraction of the compound of Formula (III) in liver microsomes from various species ranged from 75.1% to 87.9% at 0.25 mg/mL and from 58.9% to 86.5% at 1.0 mg/mL (Table 17). […] In hepatocytes, the compound of Formula (III) turnover followed a similar trend, with T1/2 ranging from 75.3 minutes in monkey to 278.1 minutes in human.

Series [3] has as its system OCI-LY3 (Myd88/CARD11/A20 mutant). The series can be described thus: Antiproliferative activity, 8 days. The class given is cell-based, human. The method, then:
(§2) In Vitro Activity in DLBCL Cell Lines—NFκB signaling regulates the secretion of multiple cytokines, including interleukin (IL)-6 and IL-10. Secretion of IL-6 and -10 by ABC-DLBCL OCI-LY-10 cells was measured using a MesoScale assay. […] To determine the anti-proliferative activity of the compound of formula (III), several ABC-DLBCL cell lines—OCI-LY-3, OCI-LY-10, TMD8, and HBL-1—were treated for 8 days. […] The OCI-LY-3 cell line, which harbors a CARD11 mutation downstream of BTK in the NF-κB signaling pathway, was completely insensitive to the compound of Formula (III) up to 2 μM. In 2 experiments, OCI-LY-3 cells were insensitive to the compound of Formula (III) at all concentrations up to 10 μM.

The nature of series [4]: Blood-to-plasma concentration ratio. It is filed as in vitro ADME. The following applies: human, fresh blood.
For series [5], the system named is IL-10 secretion, ABC-DLBCL OCI-LY-10 cells. As to the kind of experiment: IL-10 secretion by OCI-LY-10 cells (MesoScale). The class given is cell-based. Conditions: Homo sapiens, OCI-Ly10; 6 independent experiments; read-out: IC50, IL-10 secretion (mean±SEM). Here is the method: as §2
Where [6] appears, read: 10-point concentration response, read-out: IC50 (IC50 Profiler).

SMILES strings stand for the structures. Some results are limits rather than exact numbers.

T3 sequence (P51451 whole entry): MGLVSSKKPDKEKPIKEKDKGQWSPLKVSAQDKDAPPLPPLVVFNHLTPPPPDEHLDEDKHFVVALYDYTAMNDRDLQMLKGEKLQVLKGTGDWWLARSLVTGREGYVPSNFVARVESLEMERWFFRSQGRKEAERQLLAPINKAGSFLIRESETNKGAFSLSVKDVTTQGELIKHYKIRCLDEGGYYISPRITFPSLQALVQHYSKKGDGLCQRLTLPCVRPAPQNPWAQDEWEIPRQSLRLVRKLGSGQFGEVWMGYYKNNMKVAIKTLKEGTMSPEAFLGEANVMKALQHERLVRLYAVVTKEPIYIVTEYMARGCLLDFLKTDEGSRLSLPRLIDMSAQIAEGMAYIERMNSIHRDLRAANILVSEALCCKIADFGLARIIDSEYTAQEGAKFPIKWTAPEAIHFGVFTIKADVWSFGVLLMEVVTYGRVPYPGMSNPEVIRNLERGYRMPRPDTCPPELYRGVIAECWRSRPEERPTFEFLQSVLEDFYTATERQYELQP
Chain of CYP3A4 (CYP3A) (P08684 2-503): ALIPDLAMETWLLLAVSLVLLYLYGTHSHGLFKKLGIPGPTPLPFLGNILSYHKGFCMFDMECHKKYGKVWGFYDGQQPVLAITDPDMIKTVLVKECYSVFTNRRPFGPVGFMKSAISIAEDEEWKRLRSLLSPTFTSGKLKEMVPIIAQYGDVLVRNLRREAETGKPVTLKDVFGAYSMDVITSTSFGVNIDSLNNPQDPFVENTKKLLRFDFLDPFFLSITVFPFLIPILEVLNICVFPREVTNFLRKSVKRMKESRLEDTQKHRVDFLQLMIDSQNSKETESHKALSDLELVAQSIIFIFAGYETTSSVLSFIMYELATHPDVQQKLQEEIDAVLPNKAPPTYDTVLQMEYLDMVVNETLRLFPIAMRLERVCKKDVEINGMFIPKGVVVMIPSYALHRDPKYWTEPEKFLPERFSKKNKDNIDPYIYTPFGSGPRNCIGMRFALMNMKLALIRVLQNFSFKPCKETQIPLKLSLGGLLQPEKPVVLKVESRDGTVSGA
T1 sequence (P51813 whole entry): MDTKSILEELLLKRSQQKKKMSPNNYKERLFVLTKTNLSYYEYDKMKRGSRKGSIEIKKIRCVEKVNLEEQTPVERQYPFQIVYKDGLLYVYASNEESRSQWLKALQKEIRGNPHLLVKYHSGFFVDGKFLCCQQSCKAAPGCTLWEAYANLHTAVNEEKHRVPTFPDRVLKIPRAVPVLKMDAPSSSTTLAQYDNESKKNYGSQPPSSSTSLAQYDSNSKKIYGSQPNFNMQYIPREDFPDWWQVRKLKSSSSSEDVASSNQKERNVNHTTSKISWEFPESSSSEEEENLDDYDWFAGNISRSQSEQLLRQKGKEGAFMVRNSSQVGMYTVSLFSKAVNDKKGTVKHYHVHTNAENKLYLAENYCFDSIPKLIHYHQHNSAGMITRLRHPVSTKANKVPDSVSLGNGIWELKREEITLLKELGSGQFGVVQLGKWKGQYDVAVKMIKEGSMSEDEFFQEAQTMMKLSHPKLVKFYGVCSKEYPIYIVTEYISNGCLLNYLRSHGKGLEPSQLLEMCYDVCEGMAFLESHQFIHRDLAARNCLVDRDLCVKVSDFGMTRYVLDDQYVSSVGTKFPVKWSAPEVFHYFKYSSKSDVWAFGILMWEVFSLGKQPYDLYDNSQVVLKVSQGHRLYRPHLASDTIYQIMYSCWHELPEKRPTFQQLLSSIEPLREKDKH

As to `C=CC(=O)N[C@H]1CCC[C@H]1NC(=O)c1sc2nccc3c2c1NC(=O)N3c1cnc(CC(C)C)cc1C` (atropisomer, axis not shown) [compound of Formula (III), N-((1R,2S)-2-Acrylamidocyclopentyl)-5-(S)-(6-isobutyl-4-methylpyridin-3-yl)-4-oxo-4,5-dihydro-3H-1-thia-3,5,8-triazaacenaphthylene-2-carboxamide], the IC50 is 9810 nM on CYP3A4 (CYP3A) (with 30 min preincubation); greater than 10000 nM against CYP3A4 (CYP3A) (without preincubation); 172 nM at BMX (setting [6]); 303 nM on TEC (setting [6]); 3130 nM at BLK (setting [6]); greater than 2000 nM in series [3] (Homo sapiens, OCI-Ly3, 192 h, 8 days, n = 4). In addition, in series [5], the IC50 was 18 ± 7 nM. Moreover, the inhibition at 1 µM against BMX (1 μM) was found to be 92%; on TEC (1 μM), 88%; against BLK (1 μM), 54%. The blood plasma ratio at 1 μM in series [1] came out at 0.75; in [4], 0.67. Further, the “% Free in plasma” value is listed as 3.23% in series [2] (2.5 μM) and 3.72% in [2] (25 μM). The fraction unbound at 0.25 μM in series [2] (guinea pig, plasma, 0.25 μM, read-out: % Free in plasma) turned out to be 0.0326. The “sensitivity at all concentrations up to 10 μM” value in series [3] (2 experiments) is reported as “insensitive”.

The values are drawn from patent US12622910B2, “Inhibitors of Bruton's tyrosine kinase and methods of their use” (Janssen Pharmaceutica NV, priority 2021, dated 2026).
